According to US20240156785A1, “COMPOSITION FOR IMPROVING BLOOD CHOLESTEROL LEVEL” (SUNTORY HOLDINGS LIMITED, priority 2021, published 2024):

How the values were obtained:
[1] = test system: triglyceride (neutral fat) level in plasma; settings: mice, oral administration, compared with mice not orally administered with ergothioneine; cited from earlier work
[2] = test system: HDL cholesterol and LDL cholesterol in the blood; experiment: Blood cholesterol evaluation study on human (placebo-controlled, randomized, double-blind, parallel-group); type: in vivo; settings: human adults, one capsule (20 mg L-ergothioneine) per day orally for four weeks, week 4 vs pre-testing, compared with control food group
Protocol: In order to evaluate the influence of supplements containing ergothioneine on human blood cholesterol levels, a placebo-controlled, randomized, double-blind, parallel-group study was conducted on subjects including male and female adults (46 subjects in a test food group; 46 subjects in a control food group; 92 subjects in total). In this study, one capsule containing 20 mg ergothioneine (test food) or one capsule not containing ergothioneine (control food) was fed per day for four weeks. The blood cholesterol levels of the subjects were measured for pre-testing before starting the study (before starting ingestion of the test food or control food). After ingestion of the test food or control food for four weeks, the blood cholesterol levels of the subjects were measured again (testing on week 4). The cholesterol measured includes HDL cholesterol and LDL cholesterol. […] The ratio of LDL cholesterol level to HDL cholesterol level (LDL/HDL ratio) in the blood was determined for each subject from the measurements (mg/dL) of HDL cholesterol and LDL cholesterol. […] For each group, the amount of changes in LDL/HDL ratio (Δ in LDL/HDL ratio) from the time of pre-testing was determined by subtracting the LDL/HDL ratio at the time of pre-testing from the LDL/HDL ratio at the time of testing on week 4 ((LDL/HDL ratio at the time of testing on week 4)—(LDL/HDL ratio at the time of pre-testing)). […]

C[N+](C)(C)[C@@H](Cc1c[nH]c(=S)[nH]1)C(=O)[O-] [L-ergothioneine]
triglyceride (neutral fat) level in plasma [1]: lower
changes in HDL cholesterol level (Δ in HDL cholesterol) in the blood [2]: increased
changes in LDL/HDL ratio (Δ in LDL/HDL ratio) in the blood [2]: reduced
